# Laboratory results taken from PubChem BioAssay (NCI).
#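 Five compound concentrations were applied to cells in 96-well plates for 48 hours; endpoints were derived by simple linear interpolation of the resulting dose-response curve. GI50 marks 50% less growth. Definition used: TGI = concentration required for complete inhibition of growth.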
# Tests used:
# Experiment in all cases: DTP human tumour cell line panel, 48 h
# KM12 colon = test system: KM12 colon
# HS 578T breast = test system: HS 578T breast
# SK-OV-3 ovarian = test system: SK-OV-3 ovarian
# SF-539 CNS = test system: SF-539 CNS
# HL-60(TB) leukemia = test system: HL-60(TB) leukemia
# SK-MEL-2 melanoma = test system: SK-MEL-2 melanoma
# MDA-MB-435 = test system: MDA-MB-435
# NCI-H23 lung = test system: NCI-H23 lung
# SNB-75 CNS = test system: SNB-75 CNS
# MCF7 breast = test system: MCF7 breast
SMILES,GI50 (KM12 colon) [µM],TGI (KM12 colon) [µM],GI50 (HS 578T breast) [µM],TGI (HS 578T breast) [µM],GI50 (SK-OV-3 ovarian) [µM],TGI (SK-OV-3 ovarian) [µM],GI50 (SF-539 CNS) [µM],TGI (SF-539 CNS) [µM],GI50 (HL-60(TB) leukemia) [µM],TGI (HL-60(TB) leukemia) [µM],GI50 (SK-MEL-2 melanoma) [µM],TGI (SK-MEL-2 melanoma) [µM],GI50 (MDA-MB-435) [µM],TGI (MDA-MB-435) [µM],GI50 (NCI-H23 lung) [µM],TGI (NCI-H23 lung) [µM],GI50 (SNB-75 CNS) [µM],TGI (SNB-75 CNS) [µM],GI50 (MCF7 breast) [µM],TGI (MCF7 breast) [µM]
Cc1cccc2c(=O)c3c(sc12)c(NCCN)nc1ccccc13,0.913,1.77,1.5,4.78,3.17,9.9,0.917,1.77,0.864,1.74,0.995,2.15,0.911,1.67,0.87,1.96,0.448,2.79,0.678,1.42
O=C1C=CC(=O)N1CCCCCCCCCCN1C(=O)C=CC1=O,15.4,30.3,16.3,56.9,> 100,> 100,16.4,30.6,8.72,31.4,–,–,13.2,28.1,15.6,31.6,11.5,24.4,5.62,24.2
Cc1cc(NC(=O)C(=O)Cc2nc3ccccc3s2)ccc1Cl,–,> 100,–,> 100,–,> 100,–,> 100,–,–,–,> 100,–,> 100,–,> 100,–,> 100,–,> 100
Clc1ccc(CCn2cncn2)c(Cl)c1,–,> 100,–,–,–,> 100,–,> 100,–,> 100,–,–,–,–,–,> 100,–,> 100,–,–
Cn1c(-c2ccccc2)c/c(=N\NS(C)(=O)=O)c2cc(S(=O)(=O)O)ccc21,–,> 100,–,–,–,> 100,–,> 100,–,> 100,–,> 100,–,–,–,> 100,–,> 100,–,–
COc1ccc(C2SC(C)C(=O)N2NC(=O)C(O)c2ccccc2)cc1 (stereo not given),> 100,> 100,> 100,> 100,63.1,> 100,> 100,> 100,> 100,> 100,> 100,> 100,> 100,> 100,–,–,60.3,> 100,> 100,> 100
N#Cc1ccccc1/C=N/O,–,> 100,–,–,–,> 100,–,> 100,–,> 62.2,–,–,–,–,–,> 100,–,> 100,–,–
O=C(CN/C=C\C(=O)c1cc(Cl)ccc1Cl)c1ccccc1,23.8,55.3,25.7,61.3,47.1,> 100,20.4,38.8,73.4,> 100,–,–,19.2,45,19.1,44.2,–,–,22.7,51.9
Cn1c2ccccc2c(=S)c2cc(NC(=O)CCCCC(=O)Nc3ccc4c(c3)c(=S)c3ccccc3n4C)ccc21,–,> 100,–,> 100,–,> 100,–,> 100,–,–,–,> 100,–,> 100,–,> 100,–,> 100,–,> 100
O=c1[nH]c(C2CCCCC2)nc2cc(Cl)ccc12,–,> 100,–,–,–,> 100,–,> 100,–,–,–,> 100,–,–,–,> 100,–,> 100,–,–
CN(C)CCOc1cccc(NC2=C(Cl)C(=O)C(Nc3cccc(OCCN(C)C)c3)=C(Cl)C2=O)c1,1.33,2.92,–,–,11.3,23.4,1.62,2.98,0.751,2.61,1.11,2.61,0.666,1.9,0.323,1.35,1.93,4.87,–,–
FC(F)(F)c1ccccc1C=NC12CC3CC(CC(C3)C1)C2,–,> 100,–,–,–,> 100,–,> 100,–,> 100,–,> 100,–,–,–,> 100,–,> 100,–,–
Cc1ccc(S(=O)(=O)NC(=O)Nc2nc(Cl)cc(Cl)n2)cc1,–,> 100,–,–,–,> 100,–,> 100,–,> 100,–,> 100,–,–,–,> 100,–,> 100,–,–
COc1cc2c(cc1C)NC(=O)/C2=C/c1c(C)nc2sc(C)cn12,40.7,> 100,49.8,> 100,> 100,> 100,> 100,> 100,–,–,> 100,> 100,32.4,> 100,61.7,> 100,–,–,64.1,> 100
C#CCOc1c(OC)cc(C(=O)/C(C)=C/c2cccc(N=[N+]=[N-])c2)cc1OC,0.0845,> 100,0.25,> 100,0.674,> 100,0.13,0.478,0.0411,0.481,0.725,> 100,–,–,0.632,> 100,–,–,0.0447,> 100
O=C(Cc1nc2ccccc2s1)NC12CC3CC(CC(C3)C1)C2,–,> 100,–,–,–,> 100,–,> 100,–,> 100,–,> 100,–,–,–,> 100,–,> 100,–,–
[O-][N+]1=C(c2ccccc2)COc2ccccc21,–,> 100,–,–,–,> 100,–,> 100,–,> 100,–,> 100,–,–,–,> 100,–,> 100,–,–
COc1cc([C@@H]2c3cc4c(cc3[C@@H](NC(=O)c3ccc([N+](=O)[O-])cc3)C3COC(=O)[C@@H]32)OCO4)cc(OC)c1O (stereo not given in full),–,4.19,–,–,–,1.89,–,2.06,–,0.407,–,6.61,–,–,–,1.46,–,4.86,–,–
Cc1ccccc1C(C#N)/C(=N/NC(=O)C(=O)NN)C(=O)Nc1cccc(C(F)(F)F)c1 (stereo not given),–,> 100,–,–,–,–,–,> 100,–,> 100,–,> 100,–,–,–,> 100,–,> 100,–,–
O=C(Nc1ccc(Cl)cc1Cl)/C(Cl)=C1/Sc2ccccc2NC1=O,–,–,–,–,–,80.4,–,> 100,–,53.8,–,48.3,–,–,–,55,–,85.9,–,–

SMILES,GI50 (KM12 colon) [µM],TGI (KM12 colon) [µM],GI50 (HS 578T breast) [µM],TGI (HS 578T breast) [µM],GI50 (SK-OV-3 ovarian) [µM],TGI (SK-OV-3 ovarian) [µM],GI50 (SF-539 CNS) [µM],TGI (SF-539 CNS) [µM],GI50 (HL-60(TB) leukemia) [µM],TGI (HL-60(TB) leukemia) [µM],GI50 (SK-MEL-2 melanoma) [µM],TGI (SK-MEL-2 melanoma) [µM],GI50 (MDA-MB-435) [µM],TGI (MDA-MB-435) [µM],GI50 (NCI-H23 lung) [µM],TGI (NCI-H23 lung) [µM],GI50 (SNB-75 CNS) [µM],TGI (SNB-75 CNS) [µM],GI50 (MCF7 breast) [µM],TGI (MCF7 breast) [µM]
COc1ccc2c(c1)c(=O)oc1cc(OC/C(=N\O)c3ccc(F)cc3)ccc12,19.7,43.8,27,75.6,30.4,> 100,21.4,40.9,–,–,19.1,47.4,12.6,36.2,20.4,54.3,18.5,47.9,19.8,66
O=CNc1ccc2c(c1)Cc1cc([N+](=O)[O-])ccc1-2,0.715,> 100,1.23,5.16,4.39,27.4,4.14,> 100,3.21,> 100,3.58,> 100,–,–,4.61,> 100,3.02,> 59.5,0.561,> 100
C=C1CCC2C(C)(CO)C(O)CCC2(C)C1CC(O)C1=CCOC1=O (stereo not given),–,> 100,–,–,–,> 100,–,55,–,85.9,–,> 100,–,–,–,> 100,–,> 100,–,–
COC(=O)CCC(=O)C(C#N)c1ccc(Cl)cc1Cl (stereo not given),–,> 100,–,–,–,> 100,–,> 100,–,> 100,–,> 100,–,–,–,> 100,–,> 100,–,–
C[C@H]1[C@H](C)CC[C@]2(C(=O)O)CC[C@]3(C)C(=CC[C@@H]4[C@@]5(C)CC[C@H](OC(=O)/C=C\c6ccc(O)cc6)C(C)(C)[C@@H]5CC[C@]43C)[C@H]12,–,–,3.1,22.6,11.9,26.5,2.9,13.5,–,–,28.9,> 100,4.24,42.4,3.48,15.9,22.3,45.9,1.36,3.63
COc1ccc(/C=C/C(=O)c2ccc(NC(=O)CSc3nnc(-c4cc(OC)c(OC)c(OC)c4)o3)cc2)cc1,1.77,3.4,2.65,7.76,2.42,5.68,1.64,3.03,–,–,1.79,4.82,1.7,3.4,1.88,3.97,1.47,3.15,1.27,3.68
CC1=C(C(=O)Nc2ccc(Cl)c(Cl)c2)C(c2cccc(O)c2)NC(=S)N1 (stereo not given),7.77,16.6,9.5,24.9,10,20.4,8.15,15.7,11.2,44.2,8,18.3,9.16,18.5,–,–,11.8,47.8,–,–
C/C(CC(=O)Nc1ccc([N+](=O)[O-])cc1)=N/N=C(N)N,–,> 100,–,–,–,> 100,–,> 100,–,> 100,–,> 100,–,–,–,> 100,–,> 100,–,–
Cc1cc2c(=O)cc(-c3ccc(C(=O)O)cc3)oc2c(C(=O)O)c1C,–,> 100,–,–,–,> 100,–,> 100,–,> 100,–,> 100,–,–,–,> 100,–,> 100,–,–
COc1ccc(OC)c2c3c(ncc12)-c1cc2c(cc1C3)OCO2,> 100,> 100,7.01,62.1,> 100,> 100,–,–,24.8,> 100,> 100,> 100,> 100,> 100,–,–,> 100,> 100,–,–
O=C(CCc1cc(-c2ccco2)n(-c2ccc([N+](=O)[O-])cc2[N+](=O)[O-])n1)Nc1ccccc1,–,> 100,–,–,–,> 100,–,> 100,–,> 100,–,> 100,–,–,–,> 100,–,> 100,–,–
Cc1ccc(C2CC(c3cccc(Nc4ccncc4)c3)=NN2c2ccc(Cl)cc2)cc1 (stereo not given),1.62,2.99,–,–,1.65,3.17,1.74,3.14,1.92,4,–,–,1.6,2.97,1.77,3.39,1.36,2.87,1.8,3.86
O=[N+]([O-])c1ccc(C2N3CCCCC3[C@@H]3c4[nH]c5ccccc5c4CCN23)cc1 (stereo not given in full),–,–,–,–,–,> 100,–,29.9,–,> 100,–,33,–,–,–,35.7,–,3.29,–,–
NC(CCCNCc1ccccc1O)C(=O)O (stereo not given),–,> 100,–,–,–,> 100,–,> 100,–,> 100,–,> 100,–,–,–,> 100,–,> 100,–,–
C#Cc1ccc(-n2c(/C=C/c3ccc4ccccc4n3)nc3ncccc3c2=O)cc1,0.359,1.26,–,–,0.351,1.08,0.593,1.93,0.297,0.851,0.306,0.785,–,–,0.774,2.32,0.389,1.45,–,–
COC(=O)c1cc(O)ccc1NC(=O)c1ccc(O)cc1,–,> 100,–,–,–,> 100,–,> 100,–,> 100,–,> 100,–,–,–,> 100,–,> 100,–,–
C/C(CN1C(=O)c2ccccc2C1=O)=N\NS(C)(=O)=O,–,> 100,–,–,–,> 100,–,> 100,–,> 100,–,> 100,–,–,–,> 100,–,> 100,–,–
N=C(N)c1ccc(-c2ccc(-c3ccco3)o2)cc1F,1.92,3.62,1.53,4.7,3.2,11.5,1.6,3.25,2.19,4.29,2.09,3.72,1.63,3.25,–,–,1.66,7.23,1.83,4.84
O=C(/C=C/c1ccc2c(c1)OCO2)c1ccccc(=O)c1O,–,26.1,–,> 100,–,–,–,–,–,–,–,72.7,–,> 100,–,–,–,33.1,–,–
